This passage reports DC50 and Dmax results from patent US11897862B2 (Gilead Sciences, Inc., priority 2022, dated 2024).

In one experiment the target is T1, IKZF1 (Homo sapiens, UniProt Q13422+Q96SW2).
T1 construct: expressed in transfected cells
Description: HEK293 HiBiT in vitro degradation of IKZF1. In kind it is cell-based. As to conditions: for DC50: HEK293 HiBiT, 18-24 hr incubation, normalized to DMSO control, read-out: IKZF1 EC50; for Dmax: HEK293, HEK293 HiBiT, maximum degradation at the highest concentration tested. The protocol: (§1) In vitro degradation of IKZF1, IKZF2, and SALL4 was measured using HiBiT protein tagging and detection technology (Promega).
(§2) HiBit technology was used to develop the quantitative assays to measure the cellular IKZFs level by tagging an 11 amino acid HiBit peptides […] to the protein of interest. Reporter plasmids were generated by fusing a linker sequence ([…]) followed by the HiBit tag at the C-terminus of IKZF1, IKZF2, and SALL4. The fusion fragments were subsequently cloned into pcDNA5 pcDNA™5/FRT/TO plasmids (Thermo Fisher, cat #V652020) downstream of the tetracycline operator. The resulting plasmids were co-transfected with pOG44 Flp-Recombinase Expression Vector (Thermo Fisher, cat #V600520) into Flp-In™ T-REx HEK293 line (Thermo Fisher, cat #R78077) and a stable cell pool was selected by adding 100 µg/ml of Hygromycin (Thermo Fisher, cat #10687010). The reporter cell enabled Tet-On inducible reporter expression from a single copy of the integrated gene.
(§3) On Day 1, Cells were grown to ˜80% confluency in tissue culture medium (DMEM Glutamax (Gibco10569), 10% Tet free FBS (Takara 631106), and PenStrep Glutamin (Gibco 10378)) in tissue culture flasks. Doxycycline was then added to a final concentration of […] to induce reporter expression at 37° C. overnight.
(§4) On Day 2, 125 nL of serially-diluted solution of testing compounds were dispensed into 384-well white solid assay plates via ECHO acoustic liquid handler. Cells were lifted by 0.25% Trypsin (Gibco 25200) then pelleted by centrifugation (Beckman Avanti J-E) at 500×g for 5 min. Cell pellets were resuspended in TC medium at the concentration of 3e5/mL and 25 μL of cell suspension were added into each well of compound-spotted plates. The plates were returned to a 37° C. incubator overnight (18-24 hr).
(§5) On Day 3, assay plates were removed from the tissue culture incubator and 25 μL of Nano-Glo lytic detection system (Promega, cat #N3030) was added to each well. Plates were incubated at r.t. for 3 min with shaking, and luminescence was read using an Envision reader (Perkin Elmer).
(§6) To assess the IKZF1, IKZF2, and SALL4 degrader potential of exemplified compounds of this disclosure and certain Reference Compounds EC50 and Dmax values were determined for the compounds of Examples 1 to 383 and Reference Compounds A-1, B-1, B-2, B-3, B-4, and C-1 in the HiBiT assays. Asterisks (*) indicate examples for which the data shown represents an average of n≥3.
In general terms: The HiBiT peptide binds its large partner to form an active luciferase.

In the next experiment the target is IKZF2 (Homo sapiens, UniProt Q96SW2+Q9UKS7). Description: HEK293 HiBiT in vitro degradation of IKZF2. In kind it is cell-based. Details: expressed in transfected cells. As to conditions: for Dmax: HEK293, HEK293 HiBiT, maximum degradation at the highest concentration tested; for DC50: HEK293 HiBiT, 18-24 hr incubation, normalized to DMSO control, read-out: IKZF2 EC50. The protocol:
as §1, §2, §3, §4, §5, §6

One may read the Dmax as the largest share of the target that was removed. Read a high Dmax as deep degradation.

T1 sequence (Q13422 whole entry): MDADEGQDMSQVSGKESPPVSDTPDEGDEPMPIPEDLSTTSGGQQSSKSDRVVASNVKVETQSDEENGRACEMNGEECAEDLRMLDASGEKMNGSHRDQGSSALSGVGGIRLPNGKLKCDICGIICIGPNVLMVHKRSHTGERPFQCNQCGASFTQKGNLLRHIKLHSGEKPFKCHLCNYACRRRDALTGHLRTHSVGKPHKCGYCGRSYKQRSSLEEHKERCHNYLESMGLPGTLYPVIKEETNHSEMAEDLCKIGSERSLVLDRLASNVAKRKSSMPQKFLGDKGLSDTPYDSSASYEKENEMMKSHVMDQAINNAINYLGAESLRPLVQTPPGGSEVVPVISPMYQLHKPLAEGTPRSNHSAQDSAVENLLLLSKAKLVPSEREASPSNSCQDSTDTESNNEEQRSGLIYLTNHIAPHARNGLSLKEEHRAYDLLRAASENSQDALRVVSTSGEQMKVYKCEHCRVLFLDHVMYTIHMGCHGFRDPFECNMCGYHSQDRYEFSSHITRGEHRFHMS
T1 sequence (Q96SW2 whole entry): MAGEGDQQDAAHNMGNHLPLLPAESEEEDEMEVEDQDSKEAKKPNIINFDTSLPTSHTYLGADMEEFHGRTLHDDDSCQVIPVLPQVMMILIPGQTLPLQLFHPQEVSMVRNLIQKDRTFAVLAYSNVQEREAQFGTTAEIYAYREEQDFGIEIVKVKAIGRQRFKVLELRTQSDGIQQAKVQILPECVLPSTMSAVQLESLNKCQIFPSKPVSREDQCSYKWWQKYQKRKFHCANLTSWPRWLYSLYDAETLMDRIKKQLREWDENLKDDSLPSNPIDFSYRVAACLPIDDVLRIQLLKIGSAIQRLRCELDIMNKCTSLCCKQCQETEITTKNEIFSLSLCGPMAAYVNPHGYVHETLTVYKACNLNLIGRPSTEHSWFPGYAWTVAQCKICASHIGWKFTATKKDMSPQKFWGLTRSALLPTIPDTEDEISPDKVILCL
T1 sequence (Q16531 whole entry partner): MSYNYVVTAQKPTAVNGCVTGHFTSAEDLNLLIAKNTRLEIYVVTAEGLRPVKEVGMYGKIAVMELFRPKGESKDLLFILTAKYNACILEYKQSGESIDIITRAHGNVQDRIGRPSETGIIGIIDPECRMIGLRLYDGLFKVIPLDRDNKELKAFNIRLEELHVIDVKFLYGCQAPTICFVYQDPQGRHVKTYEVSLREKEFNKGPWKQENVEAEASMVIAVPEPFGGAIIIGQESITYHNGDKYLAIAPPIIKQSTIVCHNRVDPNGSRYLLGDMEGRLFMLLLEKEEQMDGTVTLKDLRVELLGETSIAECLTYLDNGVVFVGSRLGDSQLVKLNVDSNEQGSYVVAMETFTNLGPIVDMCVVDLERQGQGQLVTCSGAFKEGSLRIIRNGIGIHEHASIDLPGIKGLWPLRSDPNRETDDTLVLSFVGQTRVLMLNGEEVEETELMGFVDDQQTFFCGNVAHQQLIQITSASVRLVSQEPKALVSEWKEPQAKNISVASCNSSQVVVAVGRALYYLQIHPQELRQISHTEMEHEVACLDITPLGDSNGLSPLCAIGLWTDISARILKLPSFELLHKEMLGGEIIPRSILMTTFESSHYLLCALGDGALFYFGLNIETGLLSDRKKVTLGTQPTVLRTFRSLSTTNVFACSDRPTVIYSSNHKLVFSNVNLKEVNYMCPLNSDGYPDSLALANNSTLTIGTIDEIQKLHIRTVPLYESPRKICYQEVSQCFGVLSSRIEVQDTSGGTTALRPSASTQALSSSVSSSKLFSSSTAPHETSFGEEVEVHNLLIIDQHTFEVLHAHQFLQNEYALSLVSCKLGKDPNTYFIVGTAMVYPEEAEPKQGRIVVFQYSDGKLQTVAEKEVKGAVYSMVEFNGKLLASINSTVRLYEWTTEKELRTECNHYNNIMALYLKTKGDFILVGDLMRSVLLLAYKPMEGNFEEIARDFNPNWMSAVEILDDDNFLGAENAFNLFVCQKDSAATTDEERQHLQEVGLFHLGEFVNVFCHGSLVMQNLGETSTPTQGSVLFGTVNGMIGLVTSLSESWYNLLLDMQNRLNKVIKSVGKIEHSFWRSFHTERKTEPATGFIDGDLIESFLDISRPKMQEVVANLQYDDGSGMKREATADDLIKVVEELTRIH
Chain of IKZF2 (Q9UKS7 1-500 isoform Q9UKS7-2): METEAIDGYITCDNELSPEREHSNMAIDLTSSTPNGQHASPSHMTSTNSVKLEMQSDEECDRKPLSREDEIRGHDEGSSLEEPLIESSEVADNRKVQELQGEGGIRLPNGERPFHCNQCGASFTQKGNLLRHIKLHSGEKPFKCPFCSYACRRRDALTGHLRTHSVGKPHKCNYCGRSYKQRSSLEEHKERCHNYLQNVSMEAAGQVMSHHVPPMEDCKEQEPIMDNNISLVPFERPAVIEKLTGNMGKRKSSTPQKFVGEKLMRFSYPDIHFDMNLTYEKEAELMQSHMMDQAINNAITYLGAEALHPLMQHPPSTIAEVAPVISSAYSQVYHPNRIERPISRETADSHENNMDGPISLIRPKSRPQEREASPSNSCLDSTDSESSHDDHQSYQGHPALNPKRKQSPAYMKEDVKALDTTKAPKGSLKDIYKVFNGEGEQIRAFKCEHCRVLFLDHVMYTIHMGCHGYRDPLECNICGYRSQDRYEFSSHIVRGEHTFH
Chain of IKZF2 (Q96SW2 whole entry): as the sequence (Q96SW2 whole entry) above
Chain of IKZF2 (Q16531 whole entry partner): as the sequence (Q16531 whole entry partner) above

Turning to `CC1(C)COCCC1N[C@H]1CCCC[C@@H]1Cc1ccc2c(c1)CN(C1CCC(=O)NC1=O)C2=O` (some centres unmarked) [Example 192], at IKZF1, the DC50 was over 10 µM. Moreover, on IKZF2, the Dmax stood at 94% and the DC50 was 0.006 µM.

Regarding `O=C1CCC(N2Cc3cc(C[C@H]4CCCC[C@@H]4NCc4ccc(F)cn4)ccc3C2=O)C(=O)N1` (stereo partly drawn) [Example 49, 3-(5-(((1R,2S)-2-(((5-fluoropyridin-2-yl)methyl)amino)cyclohexyl)methyl)-1-oxoisoindolin-2-yl)piperidine-2,6-dione], the DC50 was over 1 µM on IKZF1 and 0.088 µM at IKZF2. The molecule further came in with a Dmax on IKZF2 of 66%.

On to `O=C1CCC(N2Cc3c(ccc(C[C@H]4OCCC[C@@H]4NC4CCC(OC(F)F)CC4)c3F)C2=O)C(=O)N1` (single isomer, unassigned) [Example 326], for which, at IKZF1, the Dmax was 40% and the DC50 worked out at 0.261 µM. At IKZF2, the greatest degradation seen (Dmax) came out at 95% and the DC50 amounted to 0.007 µM.

Consider `O=C1CCC(N2Cc3cc(C[C@H]4CCCC[C@@H]4NC4CCc5cn[nH]c5C4)ccc3C2=O)C(=O)N1` (some centres unmarked) [Example 165], for which, on IKZF1, the Dmax was determined as 28% and the DC50 was 0.27 µM. In addition, at IKZF2, the maximal degradation (Dmax) was determined as 98% and the DC50 stood at 0.02 µM.

Take `O=C1CCC(N2Cc3c(ccc(C[C@H]4OCCC[C@@H]4NCC4CCC(F)(F)CC4)c3F)C2=O)C(=O)N1` (some centres unmarked) [Example 149]: at IKZF1, the greatest degradation seen (Dmax) worked out at 36% and the DC50 was 0.045 µM. On IKZF2, the Dmax was 71% and the DC50 was 0.046 µM.

As for `O=C1CCC(N2Cc3cc(C[C@H]4CCCC[C@@H]4NCc4ccc5ccccc5c4)ccc3C2=O)C(=O)N1` (stereo partly drawn) [Example 9, 3-(5-(((1R,2S)-2-((naphthalen-2-ylmethyl)amino)cyclohexyl)methyl)-1-oxoisoindolin-2-yl)piperidine-2,6-dione], the DC50 at IKZF1 was over 1 µM; on IKZF2, 0.019 µM. In addition, at IKZF2, the Dmax came out at 92%.

Turning to `CC(CF)N[C@H]1CCCC[C@@H]1Cc1ccc2c(c1)CN(C1CCC(=O)NC1=O)C2=O` (some centres unmarked) [Example 127], the Dmax at IKZF1 came to 72%; at IKZF2, 68%. In addition, the DC50 on IKZF1 and at IKZF2 was 0.015 µM in each case.

For the molecule `O=C1CCC(N2Cc3cc(C[C@H]4CCCC[C@@H]4NCCOc4ccccc4Cl)ccc3C2=O)C(=O)N1` (some centres unmarked) [Example 65], the DC50 on IKZF1 was over 1 µM. For the same molecule, at IKZF2, the Dmax amounted to 64% and the DC50 stood at 0.048 µM.

Regarding `O=C1CCC(N2Cc3cc(C[C@H]4CCC[C@H](O)[C@@H]4NC4CCC(F)(F)CC4)ccc3C2=O)C(=O)N1` (single isomer, unassigned) [Example 151], the DC50 on IKZF1 was over 1 µM. Besides, at IKZF2, the greatest degradation seen (Dmax) amounted to 87% and the DC50 was found to be 0.022 µM.

For `O=C1CCC(N2Cc3cc(C[C@H]4CCCC[C@@H]4NC4CCc5cn[nH]c5C4)ccc3C2=O)C(=O)N1` (single isomer, unassigned) [Example 358], at IKZF1, the Dmax turned out to be 34% and the DC50 worked out at 0.231 µM. Further, on IKZF2, the Dmax is 100% and the DC50 amounted to 0.018 µM.

For the molecule `CCC(C)N[C@H]1CCCO[C@@H]1Cc1ccc2c(c1F)CN(C1CCC(=O)NC1=O)C2=O` (stereo partly drawn) [Example 304, 3-(5-(((2R,3S)-3-(sec-butylamino)tetrahydro-2H-pyran-2-yl)methyl)-4-fluoro-1-oxoisoindolin-2-yl)piperidine-2,6-dione], at IKZF1, the DC50 was over 1 µM. At IKZF2, the Dmax was 97% and the DC50 was 0.003 µM.

In the case of `O=C1CCC(N2Cc3cc(C[C@H]4CCCC[C@@H]4NCC4COC4)ccc3C2=O)C(=O)N1` (stereo partly drawn) [Example 68, 3-(5-(((1R,2S)-2-((oxetan-3-ylmethyl)amino)cyclohexyl)methyl)-1-oxoisoindolin-2-yl)piperidine-2,6-dione], the DC50 on IKZF1 was over 1 µM. Further, on IKZF2, the Dmax is 91% and the DC50 was 0.031 µM.

Take `CC(C)CC(C)N[C@H]1CCCC[C@@H]1Cc1ccc2c(c1)CN(C1CCC(=O)NC1=O)C2=O` (some centres unmarked) [Example 185]: the DC50 on IKZF1 was over 1 µM. In addition, at IKZF2, the Dmax is 98% and the DC50 was found to be 0.006 µM.

As for `O=C1CCC(N2Cc3c(ccc(C[C@H]4CCCC[C@@H]4NC4CCCCC4)c3F)C2=O)C(=O)N1` (stereo partly drawn) [Example 88, 3-(5-(((1R,2S)-2-(cyclohexylamino)cyclohexyl)methyl)-4-fluoro-1-oxoisoindolin-2-yl)piperidine-2,6-dione], the Dmax at IKZF1 worked out at 38%; at IKZF2, 99%. In addition, the results for the DC50 at IKZF1 and at IKZF2 were 0.101 µM and 0.001 µM, respectively.

In the case of `O=C1CCC(N2Cc3cc(C[C@H]4CCCC[C@@H]4NCc4cncc(F)c4)ccc3C2=O)C(=O)N1` (stereo partly drawn) [Example 51, 3-(5-(((1R,2S)-2-(((5-fluoropyridin-3-yl)methyl)amino)cyclohexyl)methyl)-1-oxoisoindolin-2-yl)piperidine-2,6-dione], the DC50 at IKZF1 was over 1 µM; on IKZF2, 0.045 µM. Besides, at IKZF2, the Dmax came out at 80%.

Take `C[C@@H](N[C@H]1CCCC[C@@H]1Cc1ccc2c(c1)CN(C1CCC(=O)NC1=O)C2=O)c1ccccc1` (stereo partly drawn) [Example 61, 3-(1-oxo-5-(((1R,2S)-2-(((R)-1-phenylethyl)amino)cyclohexyl)methyl)isoindolin-2-yl)piperidine-2,6-dione]: the results for the DC50 on IKZF1 and on IKZF2 were over 1 µM and 0.023 µM, respectively. The same molecule returned a Dmax at IKZF2 of 95%.

As for `O=C1CCC(N2Cc3cc(C[C@H]4CCCC[C@@H]4NCc4cnccn4)ccc3C2=O)C(=O)N1` (stereo partly drawn) [Example 59, 3-(1-oxo-5-(((1R,2S)-2-((pyrazin-2-ylmethyl)amino)cyclohexyl)methyl)isoindolin-2-yl)piperidine-2,6-dione], the DC50 on IKZF1 was over 1 µM. Also, at IKZF2, the maximal degradation (Dmax) was determined as 77% and the DC50 came out at 0.075 µM.

Take `O=C1CCC(N2Cc3cc(C[C@H]4CCCC[C@@H]4NC4CCCCC4(F)F)ccc3C2=O)C(=O)N1` (some centres unmarked) [Example 111]: the DC50 at IKZF1 is over 1 µM. In addition, at IKZF2, the Dmax stood at 81% and the DC50 is 0.091 µM.

For `CC1(C)OCCC1N[C@H]1CCCC[C@@H]1Cc1ccc2c(c1)CN(C1CCC(=O)NC1=O)C2=O` (single isomer, unassigned) [Example 273], the DC50 on IKZF1 was over 1 µM. On IKZF2, the maximal degradation (Dmax) came out at 93% and the DC50 was 0.023 µM.

Turning to `O=C1CCC(N2Cc3cc(C[C@H]4CCCC[C@@H]4NC4CCC(OC(F)F)CC4)ccc3C2=O)C(=O)N1` (stereo partly drawn) [Example 323, 3-(5-(((1R,2S)-2-((4-(difluoromethoxy)cyclohexyl)amino)cyclohexyl)methyl)-1-oxoisoindolin-2-yl)piperidine-2,6-dione], at IKZF1, the Dmax worked out at 45% and the DC50 was 0.05 µM. Also, at IKZF2, the maximal degradation (Dmax) was determined as 96% and the DC50 is 0.003 µM.

On to `CC(CCCC(F)(F)F)N[C@H]1CCCO[C@@H]1Cc1ccc2c(c1F)CN(C1CCC(=O)NC1=O)C2=O` (some centres unmarked) [Example 321], for which, on IKZF1, the Dmax amounted to 44% and the DC50 is 0.371 µM. Moreover, at IKZF2, the Dmax worked out at 94% and the DC50 was 0.006 µM.

As to `CC1(C)CCC(N[C@H]2CCCC[C@@H]2Cc2ccc3c(c2)CN(C2CCC(=O)NC2=O)C3=O)CC1` (stereo partly drawn) [Example 27, 3-(5-(((1R,2S)-2-((4,4-dimethylcyclohexyl)amino)cyclohexyl)methyl)-1-oxoisoindolin-2-yl)piperidine-2,6-dione], at IKZF1, the Dmax is 27% and the DC50 was 0.07 µM. Also, at IKZF2, the Dmax came out at 97% and the DC50 came to 0.003 µM.

With `O=C1CCC(N2Cc3cc(C[C@H]4CCCC[C@@H]4NCc4ccccc4)c(F)cc3C2=O)C(=O)N1` (stereo partly drawn) [Example 4, 3-(5-(((1R,2S)-2-(benzylamino)cyclohexyl)methyl)-6-fluoro-1-oxoisoindolin-2-yl)piperidine-2,6-dione], on IKZF1, the Dmax is 26% and the DC50 was found to be 0.13 µM. On IKZF2, the greatest degradation seen (Dmax) is 92% and the DC50 was 0.058 µM.

As to `CC(N[C@H]1CCCC[C@@H]1Cc1ccc2c(c1)CN(C1CCC(=O)NC1=O)C2=O)C1CC1` (some centres unmarked) [Example 102], the figures for the Dmax at IKZF1 and on IKZF2 were 27% and 96%, respectively. In addition, the values for the DC50 on IKZF1 and at IKZF2 were 0.242 µM and 0.006 µM, respectively.
